According to PubChem BioAssay (NCI):
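The compound was tested at five concentrations on cells cultured in 96-well plates, with a 48-hour exposure period. TGI marks complete inhibition of growth.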

How the values were obtained:
Assay in all cases: DTP human tumour cell line panel, 48 h
IGROV1 ovarian = system: IGROV1 ovarian
UO-31 renal = system: UO-31 renal
DU-145 prostate = system: DU-145 prostate
LOX IMVI melanoma = system: LOX IMVI melanoma
SF-295 CNS = system: SF-295 CNS
ACHN renal = system: ACHN renal
SNB-19 CNS = system: SNB-19 CNS
MDA-MB-435 = system: MDA-MB-435
NCI-H522 lung = system: NCI-H522 lung
SR leukemia = system: SR leukemia
SN12C renal = system: SN12C renal
U251 CNS = system: U251 CNS
K-562 leukemia = system: K-562 leukemia
M14 melanoma = system: M14 melanoma
SK-MEL-2 melanoma = system: SK-MEL-2 melanoma
SW-620 colon = system: SW-620 colon
RXF 393 renal = system: RXF 393 renal
UACC-62 melanoma = system: UACC-62 melanoma
KM12 colon = system: KM12 colon
TK-10 renal = system: TK-10 renal
NCI/ADR-RES ovarian = system: NCI/ADR-RES ovarian
SK-OV-3 ovarian = system: SK-OV-3 ovarian
PC-3 prostate = system: PC-3 prostate
MALME-3M melanoma = system: MALME-3M melanoma
HCC-2998 colon = system: HCC-2998 colon
NCI-H23 lung = system: NCI-H23 lung
CCRF-CEM leukemia = system: CCRF-CEM leukemia
HOP-62 NSCLC = system: HOP-62 NSCLC
MCF7 breast = system: MCF7 breast
HOP-92 NSCLC = system: HOP-92 NSCLC
A498 renal = system: A498 renal
SF-539 CNS = system: SF-539 CNS
MOLT-4 leukemia = system: MOLT-4 leukemia
HS 578T breast = system: HS 578T breast
A549 NSCLC = system: A549 NSCLC
MDA-MB-231 breast = system: MDA-MB-231 breast
UACC-257 melanoma = system: UACC-257 melanoma
HCT-116 colon = system: HCT-116 colon
SNB-75 CNS = system: SNB-75 CNS
OVCAR-8 ovarian = system: OVCAR-8 ovarian
NCI-H460 lung = system: NCI-H460 lung
HCT-15 colon = system: HCT-15 colon
OVCAR-5 ovarian = system: OVCAR-5 ovarian
SF-268 CNS = system: SF-268 CNS
COLO 205 colon = system: COLO 205 colon
NCI-H226 lung = system: NCI-H226 lung
HT29 colon = system: HT29 colon
RPMI-8226 leukemia = system: RPMI-8226 leukemia
CAKI-1 renal = system: CAKI-1 renal
BT-549 breast = system: BT-549 breast
OVCAR-3 ovarian = system: OVCAR-3 ovarian
SK-MEL-5 melanoma = system: SK-MEL-5 melanoma
OVCAR-4 ovarian = system: OVCAR-4 ovarian
786-0 renal = system: 786-0 renal
T-47D breast = system: T-47D breast
HL-60(TB) leukemia = system: HL-60(TB) leukemia
EKVX NSCLC = system: EKVX NSCLC

Measured: TGI

O=c1[nH]c(Nc2cccc(Cl)c2)nc2nc[nH]c12
> 100 µM: all assays above
